Reference: patent publication US11261186B2, “Biaryl derivative as GPR120 agonist” (LG CHEM, LTD., priority 2014, dated 2022)

Molecular target: T1, hGPR120 (Homo sapiens, UniProt Q5NUL3)
T1 construct: expressed in transfected cells; host or cells: CHO-K1
T1 sequence (Q5NUL3 1-361): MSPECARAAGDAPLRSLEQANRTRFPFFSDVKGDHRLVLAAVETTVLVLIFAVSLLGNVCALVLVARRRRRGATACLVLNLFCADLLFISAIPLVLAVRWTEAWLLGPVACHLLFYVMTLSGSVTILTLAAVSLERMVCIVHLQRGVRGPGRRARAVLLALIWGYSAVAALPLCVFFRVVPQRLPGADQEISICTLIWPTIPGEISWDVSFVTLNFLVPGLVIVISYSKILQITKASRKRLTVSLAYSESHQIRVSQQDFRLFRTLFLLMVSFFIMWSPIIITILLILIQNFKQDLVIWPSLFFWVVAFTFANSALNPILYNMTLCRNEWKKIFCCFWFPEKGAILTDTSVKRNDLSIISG
Assay: Measurement of Activity of GPR120 Agonist (Cell-Based Assay), Calcium 5 dye fluorescence
Settings: CHO-K1 cells expressing Ga16 and hGPR120
Summary of the method: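 Fluorescence increase (Ex 485 nm, Em 525 nm) after agonist addition was calculated as relative percent of the 1% DMSO-only signal. Cells were CHO-K1 stably carrying Gα16 plus human GPR120, dye-loaded for 1 h after overnight (18 h) culture.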

| SMILES | EC50 [nM] |
| --- | --- |
| O=C(O)CCCSc1c(F)cc(-c2cccc3c2OC2(CCCC2)C3)cc1F [Example 262, 4-(2,6-difluoro-4-spiro[3H-benzofuran-2,1′-cyclopentan]-7-yl-phenylsulfanyl)-butyric acid] | < 200 |
| CN(CCCC(=O)O)c1c(F)cc(-c2cccc3c2OC2(CCCC2)C3)cc1F [Example 263, 4-(2,6-difluoro-N-methyl-4-spiro[3H-benzofuran-2,1′-cyclopentan]-7-yl-anilino)-butyric acid] | < 200 |
| CC(CCCC(=O)O)c1c(F)cc(-c2cccc3c2OC2(CCCC2)C3)cc1F (stereo not shown) [Example 264, 5-(2,6-difluoro-4-spiro[3H-benzofuran-2,1′-cyclopentan]-7-yl-phenyl)-hexanoic acid] | 200 to 2000 |
| COC(=O)N1c2c(cc(F)cc2-c2cc(F)c(OCCCC(=O)O)c(F)c2)CC1(C)C [Example 265, 7-[4-(3-carboxy-propoxy)-3,5-difluoro-phenyl]-5-fluoro-2,2-dimethyl-2,3-dihydro-indol-1-carboxylic acid methyl ester] | 200 to 2000 |
| CC1(C)Cc2cc(F)cc(-c3cc(F)c(OCCCC(=O)O)c(F)c3)c2N1 [Example 266, 4-[2,6-difluoro-4-(5-fluoro-2,2-dimethyl-2,3-dihydro-1H-indol-7-yl)-phenoxy]-butyric acid] | 200 to 2000 |
| CC1(C)Cc2c(ccc(F)c2-c2cc(F)c(OCCCC(=O)O)c(F)c2)N1 [Example 268, 4-[2,6-difluoro-4-(5-fluoro-2,2-dimethyl-2,3-dihydro-1H-indol-4-yl)-phenoxy]-butyric acid] | 200 to 2000 |
| CC(C)Sc1ncccc1-c1ccc2c(c1)CCC(CCC(=O)O)S2 (stereo not shown) [Example 270, 3-[6-(2-isopropylsulfanyl-pyridin-3-yl)-thiochroman-2-yl]-propionic acid] | < 200 |
| O=C(O)CCC1CCc2cc(-c3cccnc3OC3CCCC3)ccc2S1 (stereo not shown) [Example 271, 3-[6-(2-cyclopentoxy-pyridin-3-yl)-thiochroman-2-yl]-propionic acid] | < 200 |
| O=C(O)CCC1CCc2cc(-c3cccnc3SC3CCC3)ccc2O1 (stereo not shown) [Example 272, 3-[6-(2-cyclobutylsulfanyl-pyridin-3-yl)-chroman-2-yl]-propionic acid] | < 200 |
| COc1ccc(-c2ccc3c(c2)CCC(CCC(=O)O)O3)c2c1OC(C)(C)C2 (stereo not shown) [Example 273, 3-[6-(7-methoxy-2,2-dimethyl-2,3-dihydro-benzofuran-4-yl)-chroman-2-yl]-propionic acid] | 2000 to 20000 |
| COc1ccc(-c2ccc3c(c2)CCC(CCC(=O)O)S3)c2c1OC(C)(C)C2 (stereo not shown) [Example 274, 3-[6-(7-methoxy-2,2-dimethyl-2,3-dihydro-benzofuran-4-yl)-thiochroman-2-yl]-propionic acid] | 200 to 2000 |
| O=C(O)CCC1CCc2cc(-c3cccnc3SC3CCC3)ccc2S1 (stereo not shown) [Example 275, 3-[6-(2-cyclobutylsulfanyl-pyridin-3-yl)-thiochroman-2-yl]-propionic acid] | < 200 |
| O=C(O)CCC1CCc2cc(-c3cccnc3OCC3CC3)ccc2O1 (stereo not shown) [Example 276, 3-[6-(2-cyclopropylmethoxy-pyridin-3-yl)-chroman-2-yl]-propionic acid] | 200 to 2000 |
| O=C(O)CCC1CCc2cc(-c3cccnc3OC3CCC3)ccc2O1 (stereo not shown) [Example 277, 3-[6-(2-cyclobutoxy-pyridin-3-yl)-chroman-2-yl]-propionic acid] | 200 to 2000 |
| O=C(O)CCC1CCc2cc(-c3cccnc3OC3CCC3)ccc2S1 (stereo not shown) [Example 278, 3-[6-(2-cyclobutoxy-pyridin-3-yl)-thiochroman-2-yl]-propionic acid] | < 200 |
| O=C(O)CCC1CCc2cc(-c3cccnc3OCC3CC3)ccc2S1 (stereo not shown) [Example 279, 3-[6-(2-cyclopropylmethoxy-pyridin-3-yl)-thiochroman-2-yl]-propionic acid] | < 200 |

| SMILES | EC50 [nM] |
| --- | --- |
| O=C(O)CCC1CCc2cc(-c3cccnc3SC3CCCC3)ccc2O1 (stereo not shown) [Example 280, 3-[6-(2-cyclopentylsulfanyl-pyridin-3-yl)-chroman-2-yl]-propionic acid] | < 200 |
| O=C(O)CCC1CCc2cc(-c3cccnc3SC3CCCC3)ccc2S1 (stereo not shown) [Example 281, 3-[6-(2-cyclopentylsulfanyl-pyridin-3-yl)-thiochroman-2-yl]-propionic acid] | < 200 |
| CC1(C)Cc2cc(Cl)cc(-c3ccc4c(c3)CCC(CCC(=O)O)S4)c2O1 (stereo not shown) [Example 282, 3-[6-(5-chloro-2,2-dimethyl-2,3-dihydro-benzofuran-7-yl)-thiochroman-2-yl]-propionic acid] | 200 to 2000 |
| O=C(O)CCC1CCc2cc(-c3cccc4c3OC3(CCCC3)C4)ccc2S1 (stereo not shown) [Example 283, 3-(6-spiro[3H-benzofuran-2,1′-cyclopentan]-7-yl-thiochroman-2-yl)-propionic acid] | 200 to 2000 |
| O=C(O)CCC1CCc2cc(-c3cccnc3OC3CCOCC3)ccc2S1 (stereo not shown) [Example 284, 3-{6-[2-(tetrahydro-pyran-4-yloxy)-pyridin-3-yl]-thiochroman-2-yl}-propionic acid] | 200 to 2000 |
| COc1ccc(-c2cc(F)c(N3CC(CC(=O)O)C3)c(F)c2)c2c1OC(C)(C)C2 [Example 285, {1-[2,6-difluoro-4-(7-methoxy-2,2-dimethyl-2,3-dihydro-benzofuran-4-yl)-phenyl]-azetidin-3-yl}-acetic acid] | 2000 to 20000 |
| CC(C)Sc1cccc(-c2ccc3c(c2)CCC(CCC(=O)O)S3)n1 (stereo not shown) [Example 286, 3-[6-(6-isopropylsulfanyl-pyridin-2-yl)-thiochroman-2-yl]-propionic acid] | < 200 |
| O=C(O)CCCOc1c(F)cc(-c2cccc3c2OC2(CCCC2)O3)cc1F [Example 287, 4-(2,6-difluoro-4-spiro[1,3-benzodioxol-2,1′-cyclopentan]-4-yl-phenoxy)butanoic acid] | < 200 |
| O=C(O)CCCOc1ccc(-c2cccc3c2OC2(CCCC2)O3)cc1 [Example 288, 4-(4-spiro[1,3-benzodioxol-2,1′-cyclopentan]-4-ylphenoxy)butanoic acid] | < 200 |
| O=C(O)CCCOc1ccc(-c2cccc3c2OC2(CCCC2)O3)cc1F [Example 289, 4-(2-fluoro-4-spiro[1,3-benzodioxol-2,1′-cyclopentan]-4-yl-phenoxy)butanoic acid] | 200 to 2000 |
| O=C(O)CCCOc1c(F)cc(-c2cccc3c2OC(F)(F)O3)cc1F [Example 290, 4-[4-(2,2-difluoro-benzo[1,3]dioxol-4-yl)-2,6-difluoro-phenoxy]-butyric acid] | < 200 |
| CC1(C)Cc2c(cccc2-c2cc(F)c(OCCCC(=O)O)c(F)c2)O1 [Example 291, 4-[4-(2,2-dimethyl-2,3-dihydro-benzofuran-4-yl)-2,6-difluoro-phenoxy]-butyric acid] | < 200 |
| O=C(O)CCCOc1c(F)cc(-c2cccnc2SC2CCCCC2)cc1F [Example 292, 4-[4-(2-cyclohexylsulfanyl-pyridin-3-yl)-2,6-difluoro-phenoxy]-butyric acid] | 2000 to 20000 |
| O=C(O)CCSCc1ccc(-c2cccnc2OC2CCCC2)cc1 [Example 293, 3-[4-(2-cyclopentyloxy-pyridin-3-yl)-benzylsulfanyl]-propionic acid] | 200 to 2000 |
| O=C(O)CC1CCN(c2c(F)cc(-c3cccc(OC4CCC4)n3)cc2F)CC1 [Example 294, 2-[1-[4-[6-(cyclobutoxy)-2-pyridyl]-2,6-difluoro-phenyl]-4-piperidyl]acetic acid] | < 200 |
